The results in this text go back to ChEMBL document CHEMBL1201862, “PubChem BioAssay data set” (2004).

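Where inhibition never reached the appropriate level, the endpoint shown equals the highest concentration tested. Otherwise, values were interpolated linearly from a five-concentration, 48-hour dose response in 96-well plates. GI50 is the concentration that inhibits growth by half.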 Active and inactive are the calls of the source. Rule as the data show it: active = GI50 up to about 1.1 µM and inactive = higher.

Some test systems named below: M14; K562; MDA-MB-231; SK-MEL-28; UACC-257; OVCAR-8; RPMI-8226; HOP-92; A498; RXF 393; ACHN; HT-29; SK-OV-3; NCI-H23; HCT-116; NCI/ADR-RES; Malme-3M; SNB-19; CCRF-CEM.
Experiment in all cases: inhibition of tumour cell growth, NCI panel, 48 h

Turning to `O=C(O)CSc1nnc2c3ccccc3c3ccccc3c2n1`, the GI50 in the experiment with M14 was 47.1 µM (inactive); in the experiment on K562, 59.6 µM (inactive); in the experiment on MDA-MB-231, 67.3 µM (inactive); in the experiment with SK-MEL-28 it was > 100 µM (inactive); in the experiment with UACC-257, > 100 µM (inactive); in the experiment with OVCAR-8 it was 50.4 µM (inactive). For the same molecule, the GI50 in the experiment with RPMI-8226 was 32.4 µM (inactive); with HOP-92, > 100 µM (inactive); with A498, > 100 µM (inactive); in the experiment with RXF 393, 57.9 µM (inactive); in the experiment on ACHN, 53.6 µM (inactive); with HT-29 it was 68.4 µM (inactive). The GI50 with SK-OV-3 was 71 µM (inactive); in the experiment on NCI-H23, > 100 µM (inactive); in the experiment with HCT-116 it was 38.2 µM (inactive); in the experiment on NCI/ADR-RES, > 100 µM (inactive); with Malme-3M, 30 µM (inactive); with SNB-19 it was 44.7 µM (inactive).
On to `O=C1CC(c2cccc(F)c2)Nc2cc3c(cc21)OCO3` (configuration not stated), for which the GI50 in the experiment on M14 was 0.0267 µM (active); with K562 it was < 0.01 µM (active); in the experiment on MDA-MB-231, 0.149 µM (active); with UACC-257, 0.0638 µM (active); in the experiment on OVCAR-8, 0.0568 µM (active); in the experiment with RPMI-8226, < 0.01 µM (active). The GI50 with HOP-92 is 0.531 µM (active); in the experiment on A498 it was < 0.01 µM (active); in the experiment on RXF 393 it was 0.0247 µM (active); in the experiment on ACHN, 0.0649 µM (active); in the experiment with HT-29 it was 0.0237 µM (active); with CCRF-CEM, 0.033 µM (active). Also, the GI50 was 0.0955 µM (active) in the experiment on SK-OV-3; 0.0335 µM (active) in the experiment on NCI-H23; 0.0533 µM (active) in the experiment with HCT-116; 0.027 µM (active) in the experiment on NCI/ADR-RES; 0.0327 µM (active) with Malme-3M; 0.0365 µM (active) with SNB-19.
Regarding `CSc1cc(Cl)c(C)cc1S(=O)(=O)NC(=O)NNc1ccc(Cl)cc1`, the GI50 in the experiment on M14, in the experiment with K562, in the experiment on MDA-MB-231, in the experiment on SK-MEL-28, with OVCAR-8 and with A498 was > 100 µM (inactive) throughout. The GI50 in the experiment with RXF 393 was 99.1 µM (inactive); in the experiment with ACHN it was 47.3 µM (inactive); in the experiment on HT-29, > 100 µM (inactive); in the experiment with SK-OV-3, > 100 µM (inactive); with HCT-116, > 100 µM (inactive); with NCI/ADR-RES it was > 100 µM (inactive). For the same molecule, the GI50 in the experiment on Malme-3M and in the experiment on SNB-19 was > 100 µM (inactive) in each case.
For the molecule `CCCN(CCC)C1CCc2c(ccc3cc[nH]c23)C1` (configuration not stated), the GI50 in the experiment on M14 was 17.7 µM (inactive); in the experiment on K562, 30.5 µM (inactive); in the experiment with MDA-MB-231, 41.3 µM (inactive); in the experiment on SK-MEL-28 it was 31.9 µM (inactive); in the experiment with UACC-257, 26.7 µM (inactive); with OVCAR-8, > 100 µM (inactive). Besides, the GI50 is 41 µM (inactive) in the experiment on RPMI-8226; 27.7 µM (inactive) with HOP-92; > 100 µM (inactive) in the experiment with A498; > 100 µM (inactive) in the experiment on RXF 393; > 100 µM (inactive) in the experiment on ACHN; 33.5 µM (inactive) in the experiment with HT-29. For the same molecule, the GI50 in the experiment on CCRF-CEM was 26.3 µM (inactive); with SK-OV-3, > 100 µM (inactive); with NCI-H23 it was > 100 µM (inactive); in the experiment with HCT-116 it was 66.8 µM (inactive); in the experiment on NCI/ADR-RES it was > 100 µM (inactive); with Malme-3M, 58.1 µM (inactive). In the experiment on SNB-19, the GI50 is > 100 µM (inactive).
Turning to `CCn1c(=O)c2c3ccc(OC(C)=O)cc3[nH]c2c2ccc(OC(C)=O)cc21`, the GI50 was 45.3 µM (inactive) in the experiment with M14; 24 µM (inactive) in the experiment on K562; 33.1 µM (inactive) in the experiment with MDA-MB-231; 49.2 µM (inactive) in the experiment on SK-MEL-28; 42.1 µM (inactive) with UACC-257; 31.3 µM (inactive) in the experiment with OVCAR-8. For the same molecule, the GI50 in the experiment on HOP-92 is 43.5 µM (inactive); in the experiment with RXF 393, 34.2 µM (inactive); in the experiment on ACHN, 31.9 µM (inactive); in the experiment with HT-29, 43.3 µM (inactive); in the experiment with CCRF-CEM it was 15.2 µM (inactive); with SK-OV-3 it was 44.3 µM (inactive). Further, the GI50 in the experiment with NCI-H23 is 40.3 µM (inactive); in the experiment with HCT-116, 15.5 µM (inactive); with NCI/ADR-RES, > 100 µM (inactive); with Malme-3M, 32.2 µM (inactive); in the experiment with SNB-19, 50.5 µM (inactive).
`COc1ccc(N2C(=O)C3c4[nH]c5ccc(F)cc5c4C4CCC(c5ccccc5)CC4C3C2=O)cc1` (configuration not stated): the GI50 in the experiment on M14 was 12.9 µM (inactive); with K562 it was 3.44 µM (inactive); with MDA-MB-231 it was 15.3 µM (inactive); in the experiment on SK-MEL-28, 13.5 µM (inactive); in the experiment with UACC-257, 26.7 µM (inactive); in the experiment on OVCAR-8, 17.8 µM (inactive). The GI50 is 32.8 µM (inactive) in the experiment with RPMI-8226; 14.5 µM (inactive) in the experiment with HOP-92; 15.7 µM (inactive) with A498; 20.3 µM (inactive) in the experiment on ACHN; 16 µM (inactive) in the experiment with HT-29; 2.26 µM (inactive) in the experiment on CCRF-CEM. Moreover, the GI50 in the experiment with SK-OV-3 is 22.5 µM (inactive); in the experiment with NCI-H23 it was 18.8 µM (inactive); in the experiment on HCT-116, 20.7 µM (inactive); in the experiment with NCI/ADR-RES it was 45.9 µM (inactive); with Malme-3M it was 16.1 µM (inactive); in the experiment with SNB-19, 11.1 µM (inactive).
Consider `S=C1/C(=N/c2ccccc2)N(c2ccccc2)/C(=N\c2cccc[n+]2Cc2ccccc2)N1c1ccccc1`, for which the GI50 in the experiment on M14 was 12.9 µM (inactive); in the experiment on K562, 4.25 µM (inactive); in the experiment with MDA-MB-231, 14.9 µM (inactive); with SK-MEL-28, 17.6 µM (inactive); in the experiment on UACC-257, 17.3 µM (inactive); with OVCAR-8, 17.9 µM (inactive). The GI50 is 17.4 µM (inactive) in the experiment on RPMI-8226; 16.6 µM (inactive) with HOP-92; 13.4 µM (inactive) with RXF 393; 17 µM (inactive) in the experiment on ACHN; 16.4 µM (inactive) with HT-29; 21.7 µM (inactive) in the experiment with SK-OV-3. Moreover, the GI50 in the experiment with NCI-H23 was 19 µM (inactive); in the experiment on HCT-116 it was 11.1 µM (inactive); with NCI/ADR-RES, 39.9 µM (inactive); with Malme-3M it was 14.4 µM (inactive); in the experiment on SNB-19, 15.4 µM (inactive).
For `COc1ccc2[nH]c3c(c2c1)CCc1c(OC)cccc1-3`, the GI50 was > 100 µM (inactive) in the experiment on M14; 53.6 µM (inactive) with K562; > 100 µM (inactive) in the experiment with MDA-MB-231; > 100 µM (inactive) with SK-MEL-28; > 100 µM (inactive) in the experiment on UACC-257; > 100 µM (inactive) in the experiment with OVCAR-8. The GI50 in the experiment on RPMI-8226 is 51.9 µM (inactive); in the experiment on HOP-92, > 100 µM (inactive); in the experiment with A498, > 100 µM (inactive); in the experiment with ACHN, > 100 µM (inactive); with HT-29 it was > 100 µM (inactive); in the experiment with CCRF-CEM, 52.2 µM (inactive). Further, the GI50 in the experiment with SK-OV-3 is > 100 µM (inactive); in the experiment on NCI-H23, > 100 µM (inactive); with HCT-116 it was > 100 µM (inactive); in the experiment with NCI/ADR-RES it was > 100 µM (inactive); in the experiment with Malme-3M, 75.2 µM (inactive); in the experiment with SNB-19 it was > 100 µM (inactive).
In the case of `Cc1cc(N(CCC#N)CCC#N)ccc1C(/N=N\c1ccc(C(=O)O)cc1)=N\NC(=O)c1cc(Cl)ccc1O`, the GI50 with M14 was > 100 µM (inactive); in the experiment on K562, > 100 µM (inactive); in the experiment on MDA-MB-231, 26.6 µM (inactive); in the experiment with UACC-257, > 100 µM (inactive); with OVCAR-8, 25.3 µM (inactive); with RPMI-8226, > 100 µM (inactive). The GI50 was 28.6 µM (inactive) with A498; 25.4 µM (inactive) in the experiment with RXF 393; 31.7 µM (inactive) in the experiment with ACHN; > 100 µM (inactive) in the experiment on HT-29; 59.8 µM (inactive) in the experiment on CCRF-CEM; 28.2 µM (inactive) in the experiment with SK-OV-3. Moreover, the GI50 with NCI-H23 is 39.2 µM (inactive); in the experiment on HCT-116 it was 36.1 µM (inactive); in the experiment on NCI/ADR-RES, 37.6 µM (inactive); with Malme-3M it was 56.6 µM (inactive); in the experiment on SNB-19 it was 23.6 µM (inactive).
As to `O=P1(Oc2ccccc2)NCc2ncccc2O1` (configuration not stated), the GI50 with M14, in the experiment on K562, in the experiment with MDA-MB-231, with SK-MEL-28, in the experiment on UACC-257 and in the experiment on OVCAR-8 was > 100 µM (inactive) each time. The GI50 with RPMI-8226, in the experiment on HOP-92, in the experiment on A498, with RXF 393, in the experiment on ACHN and in the experiment with HT-29 was > 100 µM (inactive) each time. For the same molecule, the GI50 in the experiment on CCRF-CEM, in the experiment on NCI-H23, in the experiment on HCT-116, with NCI/ADR-RES and in the experiment with SNB-19 was > 100 µM (inactive) each time.
`COc1cc2c(cc1C[C@H]1[C@@H]3C[C@H]4c5c(c6ccccc6n5C)C[C@@H]([C@@H]3CO[C@]1(C)OC(C)=O)N4C)c1c(n2C)C2C[C@H]3C(C(C)=O)=COC[C@H]3[C@H](C1)N2C`: the GI50 in the experiment with M14 is 3.11 µM (inactive); in the experiment with K562 it was 6.03 µM (inactive); with MDA-MB-231 it was 4.55 µM (inactive); in the experiment on SK-MEL-28 it was 9.91 µM (inactive); in the experiment on UACC-257, 4.03 µM (inactive); with OVCAR-8 it was 3.66 µM (inactive). Besides, the GI50 is 0.764 µM (active) with RPMI-8226; 4.98 µM (inactive) in the experiment with HOP-92; 12.3 µM (inactive) in the experiment on A498; 2.58 µM (inactive) in the experiment on RXF 393; 3.87 µM (inactive) with ACHN; 1.53 µM (inactive) in the experiment on HT-29. The GI50 was 2.55 µM (inactive) in the experiment with CCRF-CEM; 11.1 µM (inactive) with SK-OV-3; 7.06 µM (inactive) with NCI-H23; 2.5 µM (inactive) in the experiment on HCT-116; 2.93 µM (inactive) with NCI/ADR-RES; 3.18 µM (inactive) with Malme-3M. For the same molecule, the GI50 in the experiment on SNB-19 was 5.2 µM (inactive).
